Source: ChEMBL document CHEMBL5543153, “Discovery of a Potent Dual Son of Sevenless 1 (SOS1) and Epidermal Growth Factor Receptor (EGFR) Inhibitor for the Treatment of Prostate Cancer” (J Med Chem, 2024)
Activity calls are given as the source filed them. The rule behind the calls is not given here.

Experiments:
[1] = target: T1, Son of sevenless homolog 1 (Homo sapiens, UniProt Q07889); assay: Inhibition of human recombinant SOS1
T1 sequence (Q07889 whole entry): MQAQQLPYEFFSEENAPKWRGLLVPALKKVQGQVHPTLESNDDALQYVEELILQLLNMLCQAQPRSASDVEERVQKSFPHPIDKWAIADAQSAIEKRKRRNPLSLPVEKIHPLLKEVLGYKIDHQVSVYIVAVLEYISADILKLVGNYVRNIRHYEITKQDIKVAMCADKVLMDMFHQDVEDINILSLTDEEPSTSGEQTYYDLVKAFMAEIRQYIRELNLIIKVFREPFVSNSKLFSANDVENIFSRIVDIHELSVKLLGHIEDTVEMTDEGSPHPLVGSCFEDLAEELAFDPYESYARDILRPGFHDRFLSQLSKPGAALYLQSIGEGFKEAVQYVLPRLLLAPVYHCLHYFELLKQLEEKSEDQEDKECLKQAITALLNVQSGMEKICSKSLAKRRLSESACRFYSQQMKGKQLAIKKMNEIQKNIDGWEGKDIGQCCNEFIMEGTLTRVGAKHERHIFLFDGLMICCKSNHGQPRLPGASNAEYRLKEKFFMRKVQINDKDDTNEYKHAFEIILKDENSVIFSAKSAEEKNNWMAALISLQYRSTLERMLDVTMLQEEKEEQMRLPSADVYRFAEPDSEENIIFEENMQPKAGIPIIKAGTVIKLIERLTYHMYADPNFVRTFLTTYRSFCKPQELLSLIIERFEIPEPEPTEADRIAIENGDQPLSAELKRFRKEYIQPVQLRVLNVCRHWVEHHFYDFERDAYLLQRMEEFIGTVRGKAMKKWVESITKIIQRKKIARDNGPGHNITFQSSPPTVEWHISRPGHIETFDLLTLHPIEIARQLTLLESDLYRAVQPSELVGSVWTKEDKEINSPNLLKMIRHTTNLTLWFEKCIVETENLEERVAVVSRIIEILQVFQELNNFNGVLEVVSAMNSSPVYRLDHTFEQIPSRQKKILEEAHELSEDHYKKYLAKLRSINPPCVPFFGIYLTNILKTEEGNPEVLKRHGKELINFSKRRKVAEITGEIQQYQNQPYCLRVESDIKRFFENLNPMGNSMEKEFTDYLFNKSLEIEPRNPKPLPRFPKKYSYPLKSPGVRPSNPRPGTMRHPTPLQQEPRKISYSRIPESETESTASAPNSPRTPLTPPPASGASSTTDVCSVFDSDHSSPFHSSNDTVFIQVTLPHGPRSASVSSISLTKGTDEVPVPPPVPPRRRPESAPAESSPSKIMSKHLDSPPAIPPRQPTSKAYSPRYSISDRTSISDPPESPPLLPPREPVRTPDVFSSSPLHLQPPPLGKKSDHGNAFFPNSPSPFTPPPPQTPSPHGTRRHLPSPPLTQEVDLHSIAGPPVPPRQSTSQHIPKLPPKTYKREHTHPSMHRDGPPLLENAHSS

PC-3 [2] = assay: Antiproliferative activity against human PC-3 cells transfected with control shRNA assessed as inhibition of cell growth incubated for 72 hrs by MTT assay; type: functional, cell-based; conditions: PC-3, 72 h
PC-3 [3] = assay: Antiproliferative activity against human PC-3 cells transfected with SOS1 and EGFR shRNA assessed as inhibition of cell growth incubated for 72 hrs by MTT assay; type: functional, cell-based; conditions: PC-3, 72 h
PC-3 [4] = assay: Induction of apoptosis in human PC-3 cells assessed as viable cells at 2.5 uM by Annexin V-FITC staining based flow cytometry (reference value: 94.9%); type: functional; conditions: read-out: Activity
PC-3 [5] = assay: Induction of apoptosis in human PC-3 cells assessed as early apoptotic cells at 2.5 uM by Annexin V-FITC staining based flow cytometry (reference value: 2.64%); type: functional
PC-3 [6] = assay: Induction of apoptosis in human PC-3 cells assessed as late apoptotic cells at 2.5 uM by Annexin V-FITC staining based flow cytometry (reference value: 1.93%); type: functional
PC-3 [7] = assay: Induction of apoptosis in human PC-3 cells assessed as necrotic cells at 2.5 uM by Annexin V-FITC staining based flow cytometry (reference value: 0.48%); type: functional
PC-3 [8] = assay: Induction of apoptosis in human PC-3 cells assessed as upregulation of cleaved PARP expression by Western blotting analysis; type: functional, cell-based
PC-3 [9] = assay: Inhibition of colony formation in human PC-3 cells incubated for 15 days by crystal violet staining based microscopic analysis; type: functional, cell-based; conditions: time 15.0 day
PC-3 [10] = assay: Antiproliferative activity against human PC-3 cells assessed as reduction in EdU-positive cells at 0.5 to 12.5 uM incubated for 48 hrs by EdU incorporation assay; type: functional, cell-based; conditions: dose 0.5-12.5 µM
PC-3 [11] = assay: Induction of cell cycle arrest in human PC-3 cells assessed as accumulation of cells at G1 phase at 12.5 uM by PI staining based flow cytometry (reference value: 75.66%); type: functional
PC-3 [12] = assay: Induction of cell cycle arrest in human PC-3 cells assessed as accumulation of cells at G2 phase at 12.5 uM by PI staining based flow cytometry (reference value: 7.75%); type: functional
HUVEC [13] = assay: Antiangiogenic activity in HUVEC cells assessed as reduction in tube master junction at 0.5 to 12.5 uM incubated for 8 hrs by matrigel based microscopic analysis; type: functional, cell-based; conditions: Homo sapiens, dose 0.5-12.5 µM
HUVEC [14] = assay: Antiangiogenic activity in HUVEC cells assessed as reduction of meshes at 0.5 to 12.5 uM incubated for 8 hrs by matrigel based microscopic analysis; type: functional, cell-based; conditions: Homo sapiens, dose 0.5-12.5 µM
HUVEC [15] = assay: Inhibition of cell migration in HUVEC cells at 0.5 to 12.5 uM measured after 48 hrs by crystal violet staining based transwell invasion assay; type: functional; conditions: Homo sapiens, dose 0.5-12.5 µM
PC-3 [16] = assay: Antitumor activity against human PC-3 cells xenografted in BALB/c mouse assessed as reduction in number of CD31-positive cells in tumor tissue at ip administrated once every 4 days for 24 days by DAPI staining based immunohistochemical analysis; type: functional, organism-based; conditions: time 24.0 day
[17] = Toxicity in BALB/c mouse xenografted with human PC-3 cells assessed as spleen pathological change at 5 mg/kg,ip administrated once every 4 days for 24 days by hematoxylin and eosin staining based analysis; type: organism-based; conditions: in vivo, 576 h, time 24 day
[18] = Toxicity in BALB/c mouse xenografted with human PC-3 cells assessed as spleen pathological change at 20 mg/kg,ip administrated once every 4 days for 24 days by hematoxylin and eosin staining based analysis; type: organism-based; conditions: in vivo, 576 h, time 24 day
[19] = Toxicity in BALB/c mouse xenografted with human PC-3 cells assessed as kidney pathological change at 5 mg/kg,ip administrated once every 4 days for 24 days by hematoxylin and eosin staining based analysis; type: organism-based; conditions: in vivo, 576 h, time 24 day
[20] = Toxicity in BALB/c mouse xenografted with human PC-3 cells assessed as change in AST level at 20 mg/kg,ip administrated once every 4 days for 24 days by automatic biochemical analyzer; type: organism-based; conditions: in vivo, 576 h, time 24 day
[21] = Toxicity in BALB/c mouse xenografted with human PC-3 cells assessed as change in blood urea nitrogen level at 5 mg/kg,ip administrated once every 4 days for 24 days by automatic biochemical analyzer; type: organism-based; conditions: in vivo, 576 h, time 24 day
[22] = Toxicity in BALB/c mouse xenografted with human PC-3 cells assessed as change in creatinine level at 5 mg/kg,ip administrated once every 4 days for 24 days by automatic biochemical analyzer; type: organism-based; conditions: in vivo, 576 h, time 24 day

COc1cc2ncnc(N[C@H](C)c3cccc(F)c3)c2cc1OC1CCOCC1
IC50 [1]: 0.0421 µM
IC50 (PC-3 [2]): 0.43 µM
IC50 (PC-3 [3]): > 10 µM
viability at 2.5 µM (PC-3 [4]): 79.1%
Activity (PC-3 [5]): 17%
Activity (PC-3 [6]): 3.36%
Activity (PC-3 [7]): 0.57%
Activity (PC-3 [8]): Dose-Dependent Effect
inhibition (PC-3 [9]): Dose-Dependent Effect
Activity (PC-3 [10]): Active
Activity (PC-3 [11]): 87.38%
Activity (PC-3 [12]): 5.95%
Activity (HUVEC [13]): Active
Activity (HUVEC [14]): Active
inhibition (HUVEC [15]): Active
Activity (PC-3 [16]): Dose-Dependent Effect
Activity [17]: Toxic
Activity [18]: Toxic
Activity [19]: Toxic
Activity [20]: Non-Toxic
Activity [21]: Non-Toxic
Activity [22]: Non-Toxic
